From PubChem BioAssay AID328 (DTP/NCI, 2004)
Several values for one entry are separate records, joined by “and”; a condition that tells them apart may be missing. Equal entries are not always repeated. Inconclusive results and toxic doses are left out.

Test system: BDF1 mice, P388 leukemia ip, median survival T/C
Assay: NCI In Vivo Anticancer Drug Screen. Data for tumor model P388 Leukemia (intraperitoneal) in B6D2F1 (BDF1) mice
Conditions: endpoint: median survival time, higher = longer survival
Outline: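 Vehicle-dosed animals serve as the reference; survival of compound-dosed, tumour-implanted mice is divided by it.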

[1] = dose: 6.25 mg/kg/injection, schedule: Q01DX009 (ip), vehicle: saline with Tween-80
[2] = dose: 12.5 mg/kg/injection, schedule: Q01DX009 (ip), vehicle: saline with Tween-80
[3] = dose: 25.0 mg/kg/injection, schedule: Q01DX009 (ip), vehicle: saline with Tween-80
[4] = dose: 50.0 mg/kg/injection, schedule: Q01DX009 (ip), vehicle: saline with Tween-80
[5] = dose: 100.0 mg/kg/injection, schedule: Q01DX009 (ip), vehicle: saline with Tween-80
[6] = dose: 200.0 mg/kg/injection, schedule: Q01DX009 (ip), vehicle: saline with Tween-80
[7] = dose: 100.0 mg/kg/injection, schedule: Q01DX009 (ip), vehicle: Klucel (hydroxypropylcellulose) (HPC)
[8] = dose: 100.0 mg/kg/injection, schedule: Q04DX003 (ip), vehicle: saline with Tween-80
[9] = dose: 200.0 mg/kg/injection, schedule: Q04DX003 (ip), vehicle: saline with Tween-80
[10] = dose: 400.0 mg/kg/injection, schedule: Q04DX003 (ip), vehicle: saline with Tween-80
[11] = dose: 100.0 mg/kg/injection, schedule: Q01DX009 (ip), vehicle: saline
[12] = dose: 200.0 mg/kg/injection, schedule: Q01DX009 (ip), vehicle: saline
[13] = dose: 50.0 mg/kg/injection, schedule: Q01DX009 (ip), vehicle: saline

COC(=O)[C@@]12OC[C@]34[C@H]([C@@H](O)[C@@H]1O)[C@@]1(C)[C@H](O)C(=O)C=C(C)[C@@H]1C[C@H]3OC(=O)C(OC(C)=O)[C@@H]24 (stereo not given in full)
T/C (dose: 15.0 micrograms/kg/injection, schedule: Q01DX009 (ip), vehicle: saline + alcohol): 100 % of control
T/C (dose: 16.0 micrograms/kg/injection, schedule: Q01DX009 (ip), vehicle: saline + alcohol): 100 % of control
T/C (dose: 31.0 micrograms/kg/injection, schedule: Q01DX009 (ip), vehicle: saline + alcohol): 90 % of control and 100 % of control
T/C (dose: 62.0 micrograms/kg/injection, schedule: Q01DX009 (ip), vehicle: saline + alcohol): 90 % of control and 104 % of control
T/C (dose: 125.0 micrograms/kg/injection, schedule: Q01DX009 (ip), vehicle: saline + alcohol): 115 % of control
T/C (dose: 250.0 micrograms/kg/injection, schedule: Q01DX009 (ip), vehicle: saline + alcohol): 110 % of control
T/C (dose: 500.0 micrograms/kg/injection, schedule: Q01DX009 (ip), vehicle: saline + alcohol): 120 % of control

COc1cc(N(CCCl)CCCl)ccc1C=Nc1ccccc1C(=O)O
T/C (dose: 5.0 mg/kg/injection, schedule: Q01DX009 (ip), vehicle: saline): 227 % of control
T/C (dose: 11.9 mg/kg/injection, schedule: Q04DX003 (ip), vehicle: saline with Tween-80): 237 % of control
T/C (dose: 18.0 mg/kg/injection, schedule: Q04DX003 (ip), vehicle: saline with Tween-80): 254 % of control
T/C (dose: 27.0 mg/kg/injection, schedule: Q04DX003 (ip), vehicle: saline with Tween-80): 116 % of control

CCC1c2ccc3cc(OC)ccc3c2C(=O)CC1C(=O)O (stereo not given)
T/C (dose: 100.0 mg/kg/injection, schedule: Q04DX003 (sc), vehicle: steriod suspending solution): 113 % of control
T/C (dose: 200.0 mg/kg/injection, schedule: Q04DX003 (sc), vehicle: steriod suspending solution): 100 % of control
T/C (dose: 400.0 mg/kg/injection, schedule: Q04DX003 (sc), vehicle: steriod suspending solution): 95 % of control

CCC12C=CCN3CCC4(c5cc(C(c6ccc(OC)cc6)c6cc7ccccc7[nH]6)c(OC)cc5N(C)C4C(O)(CO)C1O)C32 (stereo not given)
T/C (dose: 2.0 mg/kg/injection, schedule: Q01DX009 (ip), vehicle: saline): 104 % of control
T/C (dose: 4.0 mg/kg/injection, schedule: Q01DX009 (ip), vehicle: saline): 98 % of control
T/C (dose: 8.0 mg/kg/injection, schedule: Q01DX009 (ip), vehicle: saline): 95 % of control
T/C (dose: 16.0 mg/kg/injection, schedule: Q01DX009 (ip), vehicle: saline): 98 % of control
T/C (dose: 32.0 mg/kg/injection, schedule: Q01DX009 (ip), vehicle: saline): 104 % of control

O=[N+]([O-])c1ccc(N/N=C(\c2ccccc2)c2ccsc2)c([N+](=O)[O-])c1
T/C [1]: 103 % of control
T/C [2]: 100 % of control
T/C [3]: 96 % of control
T/C [4]: 92 % of control

O=C1c2cc(O)c(O)cc2O[C@H](c2ccc(O)c(O)c2)[C@H]1O
T/C (dose: 7.5 mg/kg/injection, schedule: Q01DX010 (ip), vehicle: saline): 100 % of control
T/C (dose: 15.0 mg/kg/injection, schedule: Q01DX009 (ip), vehicle: saline): 113 % of control and 118 % of control
T/C (dose: 15.0 mg/kg/injection, schedule: Q01DX010 (ip), vehicle: saline): 109 % of control
T/C (dose: 30.0 mg/kg/injection, schedule: Q01DX009 (ip), vehicle: saline): 100 % of control
T/C (dose: 30.0 mg/kg/injection, schedule: Q01DX010 (ip), vehicle: saline): 109 % of control
T/C (dose: 60.0 mg/kg/injection, schedule: Q01DX009 (ip), vehicle: saline): 104 % of control and 122 % of control
T/C (dose: 125.0 mg/kg/injection, schedule: Q01DX009 (ip), vehicle: saline): 104 % of control
T/C (dose: 350.0 mg/kg/injection, schedule: Q01DX009 (ip), vehicle: saline): 117 % of control

CCOC(=O)C(F)C(Br)C(=O)OCC (stereo not given)
T/C [4]: 96 % of control and 101 % of control
T/C [5]: 116 % of control
T/C [6]: 154 % of control

C=CCCCCCCCCC(=O)N(CC#N)CC(C)C
T/C [4]: 100 % of control
T/C [5]: 109 % of control
T/C [6]: 109 % of control

Nc1ccc(OCCCc2c(-c3ccccc3)nc(N)[nH]c2=O)cc1
T/C [3]: 100 % of control
T/C [4]: 99 % of control
T/C [5]: 108 % of control

O/N=C\c1ccccc1
T/C (dose: 25.0 mg/kg/injection, schedule: Q01DX009 (ip), vehicle: Klucel (hydroxypropylcellulose) (HPC)): 108 % of control
T/C (dose: 50.0 mg/kg/injection, schedule: Q01DX009 (ip), vehicle: Klucel (hydroxypropylcellulose) (HPC)): 95 % of control
T/C (dose: 75.0 mg/kg/injection, schedule: Q04DX003 (ip), vehicle: saline with Tween-80): 110 % of control
T/C [7]: 91 % of control
T/C (dose: 150.0 mg/kg/injection, schedule: Q04DX003 (ip), vehicle: saline with Tween-80): 105 % of control

CC(=O)Nc1cc(C(=O)O)cc(C(F)(F)F)c1
T/C [8]: 115 % of control
T/C [9]: 105 % of control
T/C [10]: 95 % of control

CCCCOCN(COCCCC)c1cccc([N+](=O)[O-])c1
T/C [4]: 102 % of control
T/C [5]: 100 % of control
T/C [6]: 111 % of control

NC(Cc1ccc([N+](=O)[O-])cc1)C(=O)O (stereo not given)
T/C [5]: 105 % of control
T/C [11]: 100 % of control
T/C (dose: 100.0 mg/kg/injection, schedule: Q04DX003 (ip), vehicle: other): 100 % of control
T/C [6]: 110 % of control
T/C [12]: 100 % of control
T/C (dose: 200.0 mg/kg/injection, schedule: Q04DX003 (ip), vehicle: other): 104 % of control
T/C (dose: 400.0 mg/kg/injection, schedule: Q01DX009 (ip), vehicle: saline with Tween-80): 90 % of control
T/C (dose: 400.0 mg/kg/injection, schedule: Q01DX009 (ip), vehicle: saline): 86 % of control
T/C (dose: 400.0 mg/kg/injection, schedule: Q04DX003 (ip), vehicle: other): 100 % of control

COc1cc2c(c(OC)c1OC)-c1cc3c(cc1[C@@H](O)[C@@H]1COC(=O)[C@@H]21)OCO3
T/C (dose: 6.2 mg/kg/injection, schedule: Q01DX009 (ip), vehicle: saline): 90 % of control
T/C (dose: 9.3 mg/kg/injection, schedule: Q01DX009 (ip), vehicle: saline): 86 % of control
T/C (dose: 14.0 mg/kg/injection, schedule: Q01DX009 (ip), vehicle: saline): 109 % of control
T/C (dose: 21.0 mg/kg/injection, schedule: Q01DX009 (ip), vehicle: saline): 100 % of control

O=C(/C=C/c1ccccc1)NC(CO)Cc1ccccc1 (stereo not given)
T/C [1]: 90 % of control
T/C [2]: 92 % of control
T/C [3]: 101 % of control
T/C [5]: 100 % of control
T/C [6]: 100 % of control

CCN(CC)CC(COC)Oc1cc(C)ccc1C(C)C (stereo not given)
T/C [4]: 100 % of control
T/C [5]: 91 % of control

C1CCC(=[N+]2CCCC2)CC1
T/C [13]: 100 % of control
T/C [11]: 100 % of control
T/C (dose: 100.0 mg/kg/injection, schedule: Q04DX003 (ip), vehicle: saline): 109 % of control
T/C [12]: 112 % of control
T/C (dose: 200.0 mg/kg/injection, schedule: Q04DX003 (ip), vehicle: saline): 100 % of control

O=C1CCS2(CCC(=O)O2)O1
T/C [13]: 98 % of control
T/C [11]: 94 % of control
T/C [12]: 98 % of control

c1ccc2cc(-c3cc4ccccc4s3)ccc2c1
T/C (dose: 50.0 mg/kg/injection, schedule: Q01DX010 (ip), vehicle: saline): 95 % of control
T/C [7]: 120 % of control
T/C (dose: 100.0 mg/kg/injection, schedule: Q01DX010 (ip), vehicle: saline): 100 % of control
T/C (dose: 200.0 mg/kg/injection, schedule: Q01DX009 (ip), vehicle: Klucel (hydroxypropylcellulose) (HPC)): 120 % of control
T/C (dose: 200.0 mg/kg/injection, schedule: Q01DX010 (ip), vehicle: saline): 100 % of control
T/C (dose: 400.0 mg/kg/injection, schedule: Q01DX009 (ip), vehicle: Klucel (hydroxypropylcellulose) (HPC)): 115 % of control
T/C (dose: 400.0 mg/kg/injection, schedule: Q01DX010 (ip), vehicle: saline): 100 % of control

COc1ccc2c(c1)/C(=C/CCN(C)C)c1ccccc1S2
T/C (dose: 12.5 mg/kg/injection, schedule: Q01DX009 (ip), vehicle: saline): 109 % of control
T/C (dose: 16.5 mg/kg/injection, schedule: Q01DX009 (ip), vehicle: saline): 118 % of control
T/C (dose: 37.5 mg/kg/injection, schedule: Q01DX009 (ip), vehicle: saline): 95 % of control
T/C [13]: 118 % of control

Cc1c(C/C(=N/O)C(=O)O)[nH]c(=S)[nH]c1=O
T/C [8]: 100 % of control
T/C [9]: 87 % of control
T/C [10]: 100 % of control

O=S1(=O)CCCO1
T/C [4]: 95 % of control
T/C [5]: 113 % of control
